Values joined by “and” are separate entries in the source; they are usually repeats but may differ in a detail not shown here. Equal entries are not always repeated. Where two headings read alike, the source gives them in different places. No end group written: not given here.
What was measured:
[1] = molecular target: T1, DR2b (DRB1*15:01) (Homo sapiens, UniProt P01903+P01911); test: fluorescence polarization competition binding assay, DR2b; conditions: mean of two independent experiments
T1 construct: Soluble DRB1*15:01 and DRB5*01:01 with a covalently linked CLIP peptides; covalently linked CLIP peptide (3C-protease-cleavable linker) (cleaved yes); purchased NIH Tetramer Core Facility / Emory University (a gift of Drs. John Altman and Richard Willis, not bought)

[2] = molecular target: DR2a (DRB5*01:01) (Homo sapiens, UniProt P01903+Q30154); test: fluorescence polarization competition binding assay, DR2a
[3] = molecular target: DP4.1 (HLA-DPA1*01:03/DPB1*04:01) (Homo sapiens, UniProt P04440+P20036); test: fluorescence polarization competition binding assay, DP4.1
[4] = fluorescence polarization competition, soluble DP4.1-Clip 250 nM, 25 nM Alexa488 oxytocinase probe peptide, 500 nM HLA-DM, 24 h 37°C, mean of two independent experiments, read-out: Mean IC50, DPA*01:03/DPB1*04:01

Row | Molecule | IC50 [3, 4] [µM] | IC50 [3] | also measured
1 | LFYTQVYKNMAVYRS [Peptide P9] | – | – | IC50 [1]: 220 nM; IC50 [2]: < 1 µM and 0.4 µM
2 | CC[C@H](C)[C@H](NC(=O)[C@H](Cc1ccccc1)NC(=O)[C@H](CO)NC(=O)[C@H](CCCNC(=N)N)NC(=O)[C@H](CCCCN)NC(=O)[C@H](CO)NC(=O)[C@@H]1CCCN1C(=O)[C@@H](N)CCCCN)C(=O)N[C@@H](CCC(=O)O)C(=O)N[C@@H](CC(=O)O)C(=O)N[C@@H](CC(C)C)C(=O)N[C@@H](CC(C)C)C(=O)N[C@@H](Cc1ccccc1)C(=O)N[C@@H](CC(N)=O)C(=O)N[C@@H](CCCCN)C(=O)N[C@H](C(=O)O)C(C)C [S#163 (CoV2)] | 0.29 | – | –
3 | CC(C)C[C@H](NC(=O)[C@H](CCC(=O)O)NC(=O)[C@H](CC(C)C)NC(=O)[C@H](CCCNC(=N)N)NC(=O)[C@H](CO)NC(=O)CNC(=O)[C@H](Cc1ccccc1)NC(=O)[C@H](Cc1ccccc1)NC(=O)[C@H](Cc1ccccc1)NC(=O)[C@H](C)NC(=O)CN)C(=O)N[C@@H](C)C(=O)N[C@@H](CCCCN)C(=O)N[C@H](C(=O)N[C@@H](CCC(N)=O)C(=O)N[C@@H](CC(N)=O)C(=O)O)C(C)C [Peptide P2] | – | 118 µM | –
4 | CC[C@H](C)[C@H](NC(=O)[C@H](C)NC(=O)[C@H](CO)NC(=O)[C@@H](N)CCCNC(=N)N)C(=O)N[C@@H](CCC(=O)O)C(=O)N[C@@H](CC(=O)O)C(=O)N[C@@H](CC(C)C)C(=O)N[C@@H](CC(C)C)C(=O)N[C@@H](Cc1ccccc1)C(=O)N[C@@H](CC(=O)O)C(=O)N[C@@H](CCCCN)C(=O)N[C@H](C(=O)N[C@@H](CCCCN)C(=O)N[C@@H](CC(C)C)C(=O)N[C@@H](CO)C(=O)O)C(C)C [Peptide P4] | – | 2.99 µM | –
5 | CC[C@H](C)[C@H](N)C(=O)N[C@H](C(=O)N[C@H](C(=O)NCC(=O)N[C@@H](Cc1ccc(O)cc1)C(=O)N[C@@H](CCCNC(=N)N)C(=O)N[C@@H](Cc1ccccc1)C(=O)N[C@H](C(=O)N[C@@H](CC(N)=O)C(=O)N[C@@H](Cc1ccccc1)C(=O)N[C@@H](CCC(=O)O)C(=O)N1CCC[C@H]1C(=O)N[C@@H](Cc1ccccc1)C(=O)N[C@H](C(=O)O)[C@@H](C)O)[C@@H](C)O)[C@@H](C)O)[C@@H](C)O [Peptide P5] | – | < 1 µM and 0.3 µM | –
6 | CC(C)[C@H](NC(=O)[C@H](CC(N)=O)NC(=O)CNC(=O)CNC(=O)[C@H](CO)NC(=O)[C@@H]1CCCN1)C(=O)N[C@H](C(=O)N1CCC[C@H]1C(=O)N[C@@H](Cc1ccc(O)cc1)C(=O)N[C@@H](Cc1ccc(O)cc1)C(=O)N[C@@H](CO)C(=O)N[C@@H](Cc1c[nH]c2ccccc12)C(=O)N[C@@H](Cc1ccccc1)C(=O)N[C@@H](CO)C(=O)NCC(=O)O)C(C)C [Peptide P10] | – | – | IC50 [1]: 260 nM; IC50 [2]: 72.9 µM
7 | YLAISNELLLTVPTK [Peptide P1] | – | < 1 µM and 0.41 µM | –
8 | CC[C@H](C)[C@H](NC(=O)CNC(=O)[C@H](CC(=O)O)NC(=O)[C@H](CCC(N)=O)NC(=O)[C@H](CC(N)=O)NC(=O)[C@H](Cc1ccccc1)NC(=O)[C@H](C)NC(=O)[C@H](CC(C)C)NC(=O)[C@H](CC(C)C)NC(=O)[C@H](Cc1ccc(O)cc1)NC(=O)[C@H](CCC(N)=O)NC(=O)[C@H](CCCNC(=N)N)NC(=O)[C@@H](N)CO)C(=O)N[C@H](C(=O)N[C@@H](Cc1ccccc1)C(=O)N[C@@H](CC(N)=O)C(=O)O)[C@@H](C)CC [Peptide P13] | – | – | IC50 [2]: 43.8 µM
9 | NRGRQFYEFYNDVKPP [Peptide P14] | – | 5.14 µM | –
10 | CC[C@H](C)[C@H](NC(=O)CNC(=O)[C@H](CC(N)=O)NC(=O)[C@@H](NC(=O)[C@H](Cc1ccccc1)NC(=O)[C@H](CC(=O)O)NC(=O)[C@H](CO)NC(=O)[C@@H](N)CC(C)C)[C@@H](C)CC)C(=O)N[C@@H](Cc1ccccc1)C(=O)N[C@@H](C)C(=O)N[C@@H](CCCCN)C(=O)N[C@H](C(=O)N[C@@H](CCCCN)C(=O)N[C@@H](CC(N)=O)C(=O)N[C@H](C(=O)N[C@@H](CCCCN)C(=O)O)[C@@H](C)O)C(C)C [Peptide P3] | – | 3.16 µM | –
11 | CC(C)C[C@H](NC(=O)[C@H](CCCCN)NC(=O)[C@@H](NC(=O)[C@H](CCCCN)NC(=O)[C@H](CC(=O)O)NC(=O)[C@H](Cc1ccccc1)NC(=O)[C@H](CC(C)C)NC(=O)[C@H](CC(C)C)NC(=O)[C@H](CC(=O)O)NC(=O)[C@H](CCC(=O)O)NC(=O)[C@H](Cc1ccccc1)NC(=O)[C@H](Cc1ccccc1)NC(=O)[C@H](CO)NC(=O)[C@H](CCCNC(=N)N)NC(=O)[C@H](CO)NC(=O)[C@H](CO)NC(=O)[C@@H](N)CO)C(C)C)C(=O)O [HKU1-151] | – | 2.57 µM | –
12 | CC[C@H](C)[C@H](NC(=O)[C@H](Cc1ccccc1)NC(=O)[C@@H](N)CO)C(=O)N[C@@H](CCC(=O)O)C(=O)N[C@@H](CC(=O)O)C(=O)N[C@@H](CC(C)C)C(=O)N[C@@H](CC(C)C)C(=O)N[C@@H](Cc1ccccc1)C(=O)N[C@@H](CC(N)=O)C(=O)N[C@@H](CCCCN)C(=O)N[C@H](C(=O)N[C@H](C(=O)N[C@@H](CC(C)C)C(=O)N[C@@H](C)C(=O)N[C@@H](CC(=O)O)C(=O)N[C@@H](C)C(=O)O)[C@@H](C)O)C(C)C [S#164 (CoV2)] | 128 | – | –
13 | CC[C@H](C)[C@H](NC(=O)[C@H](CO)NC(=O)[C@H](CCC(N)=O)NC(=O)[C@H](CO)NC(=O)[C@H](C)NC(=O)[C@@H](NC(=O)[C@@H](N)CO)C(C)C)C(=O)N[C@H](C(=O)N[C@@H](C)C(=O)N[C@@H](Cc1ccc(O)cc1)C(=O)N[C@H](C(=O)N[C@@H](CCSC)C(=O)N[C@@H](CO)C(=O)N[C@@H](CC(C)C)C(=O)NCC(=O)N[C@@H](C)C(=O)O)[C@@H](C)O)[C@@H](C)CC [S#138 (CoV2)] | 438 | – | –
14 | CC[C@H](C)[C@H](NC(=O)[C@H](Cc1ccccc1)NC(=O)[C@H](Cc1ccc(O)cc1)NC(=O)[C@H](CC(C)C)NC(=O)CNC(=O)[C@H](Cc1ccc(O)cc1)NC(=O)[C@@H]1CCCN1C(=O)[C@H](C)N)C(=O)N[C@@H](Cc1c[nH]cn1)C(=O)N[C@@H](Cc1ccccc1)C(=O)N[C@@H](CO)C(=O)N[C@@H](Cc1ccc(O)cc1)C(=O)N[C@H](C(=O)N1CCC[C@H]1C(=O)N[C@H](C(=O)N[C@@H](CCCCN)C(=O)O)[C@@H](C)O)C(C)C [Peptide P6] | – | 80.5 µM | –
15 | CC(C)C[C@H](NC(=O)CNC(=O)[C@H](CO)NC(=O)[C@@H](NC(=O)[C@@H](NC(=O)[C@@H](NC(=O)[C@H](CCCCN)NC(=O)[C@H](CO)NC(=O)[C@H](Cc1ccccc1)NC(=O)[C@H](CC(C)C)NC(=O)[C@H](CC(C)C)NC(=O)[C@H](CC(=O)O)NC(=O)[C@H](CCC(=O)O)NC(=O)[C@H](CC(C)C)NC(=O)[C@H](C)NC(=O)[C@@H](N)CO)C(C)C)C(C)C)[C@@H](C)O)C(=O)NCC(=O)O [NL63-146] | – | 3.48 µM | –
16 | PSASAFFGMSRIGMEVT [N#45 (CoV2)] | 544 | – | –
17 | CC(C)C[C@H](NC(=O)[C@H](Cc1ccccc1)NC(=O)[C@@H](NC(=O)[C@@H](NC(=O)CNC(=O)[C@H](Cc1c[nH]cn1)NC(=O)[C@@H]1CCCN1C(=O)[C@H](C)N)C(C)C)C(C)C)C(=O)N[C@@H](Cc1c[nH]cn1)C(=O)N[C@H](C(=O)N[C@H](C(=O)N[C@@H](Cc1ccc(O)cc1)C(=O)N[C@H](C(=O)N1CCC[C@H]1C(=O)N[C@@H](C)C(=O)N[C@@H](CCC(N)=O)C(=O)O)C(C)C)[C@@H](C)O)C(C)C [S#212 (CoV2)] | 253 | – | –
18 | CC[C@H](C)[C@H](NC(=O)[C@@H](NC(=O)[C@@H](N)CO)[C@@H](C)CC)C(=O)N[C@@H](C)C(=O)N[C@@H](Cc1ccc(O)cc1)C(=O)N[C@H](C(=O)N[C@@H](CCSC)C(=O)N[C@@H](CO)C(=O)N[C@@H](CC(C)C)C(=O)NCC(=O)N[C@@H](C)C(=O)N[C@@H](CCC(=O)O)C(=O)N[C@@H](CC(N)=O)C(=O)N[C@@H](CO)C(=O)N[C@H](C(=O)N[C@@H](C)C(=O)O)C(C)C)[C@@H](C)O [S#139 (CoV2)] | 292 | – | –
19 | CC(C)C[C@H](NC(=O)[C@@H](NC(=O)[C@@H]1CCCN1C(=O)[C@@H](N)CC(N)=O)C(C)C)C(=O)N1CCC[C@H]1C(=O)N[C@@H](Cc1ccccc1)C(=O)N[C@@H](CC(N)=O)C(=O)N[C@@H](CC(=O)O)C(=O)NCC(=O)N[C@H](C(=O)N[C@@H](Cc1ccc(O)cc1)C(=O)N[C@@H](Cc1ccccc1)C(=O)N[C@@H](C)C(=O)N[C@@H](CO)C(=O)N[C@H](C(=O)N[C@@H](CCC(=O)O)C(=O)O)[C@@H](C)O)C(C)C [S#17 (CoV2)] | 76 | – | –
20 | YVYSRVKNLNSSRVPDL [E#9 (CoV2)] | 661 | – | –
21 | CC(C)C[C@H](NC(=O)[C@H](Cc1ccccc1)NC(=O)[C@@H](N)C(C)C)C(=O)N[C@@H](Cc1c[nH]cn1)C(=O)N[C@H](C(=O)N[C@H](C(=O)N[C@@H](Cc1ccc(O)cc1)C(=O)N[C@H](C(=O)N1CCC[C@H]1C(=O)N[C@@H](C)C(=O)N[C@@H](CCC(N)=O)C(=O)N[C@@H](CCC(=O)O)C(=O)N[C@@H](CCCCN)C(=O)N[C@@H](CC(N)=O)C(=O)N[C@@H](Cc1ccccc1)C(=O)N[C@H](C(=O)O)[C@@H](C)O)C(C)C)[C@@H](C)O)C(C)C [S#213 (CoV2)] | 242 | – | –
22 | CC[C@H](C)[C@H](N)C(=O)N[C@@H](Cc1c[nH]cn1)C(=O)N[C@@H](Cc1ccccc1)C(=O)N[C@@H](CO)C(=O)N[C@@H](Cc1ccc(O)cc1)C(=O)N[C@H](C(=O)N1CCC[C@H]1C(=O)N[C@H](C(=O)N[C@@H](CCCCN)C(=O)N[C@@H](Cc1ccc(O)cc1)C(=O)N[C@H](C(=O)N[C@H](C(=O)N[C@@H](C)C(=O)N[C@@H](CCCNC(=N)N)C(=O)N[C@H](C(=O)N[C@@H](CO)C(=O)N1CCC[C@H]1C(=O)NCC(=O)O)C(C)C)[C@@H](C)O)C(C)C)[C@@H](C)O)C(C)C [Peptide P7] | – | 9.44 µM | –
23 | CC[C@H](C)[C@H](NC(=O)[C@H](C)NC(=O)[C@H](CO)NC(=O)[C@H](CCCNC(=N)N)NC(=O)CNC(=O)[C@H](C)NC(=O)[C@@H](NC(=O)[C@@H](N)CCCNC(=N)N)C(C)C)C(=O)N[C@@H](CCC(=O)O)C(=O)N[C@@H](CC(=O)O)C(=O)N[C@H](C(=O)N[C@@H](CC(C)C)C(=O)N[C@@H](Cc1ccccc1)C(=O)N[C@@H](CO)C(=O)N[C@@H](CCCCN)C(=O)N[C@@H](CC(C)C)C(=O)N[C@H](C(=O)O)C(C)C)[C@@H](C)CC [Peptide 229E-115] | – | 5.99 µM | –

— publication PMC10409285 (PLOS Pathogens, 2023)
